Results as given in US9376470B2, “Polypeptide having angiogenesis-inducing activity and antibacterial activity, and use thereof for medical purposes” (FunPep Inc., priority 2008, dated 2016).
Peptide text beside a SMILES is read from it.

Test system: human vascular endothelial cells and fibroblast cells (co-culture, Angiogenesis Kit KZ-1000)
Settings: polypeptide 10 μg/mL, day 11 of culture
Description: Using AG30-5C as a positive control, the angiogenesis-inducing activity of SR-1 and SR-2 was measured. […] As a negative control, polypeptide-free group (Control) was used.
Cells were cultured at 37° C. under 5% CO2 in a 24-well plate using the special media to which the polypeptide was added. The medium was replaced with a medium containing the same polypeptide on day 4, day 7 and day 9 of culture. On day 11 from the beginning of the culture, the medium was removed and staining was performed using a kit for staining lumina (for CD31 antibody staining) according to the following procedure.
The primary antibody (mouse anti-human CD31 antibody) was 4000-fold diluted with a blocking solution (Dulbecco's phosphate buffered saline (PBS(−)) containing 1% BSA). To each well, 0.5 mL of this primary antibody solution was added, and the plate was incubated for 60 minutes at 37° C. After the completion of the incubation, each well was washed totally 3 times with 1 mL of the blocking solution.
Then, 0.5 mL of a secondary antibody solution (goat anti-mouse IgG/alkaline phosphatase conjugate) 500-fold diluted with the blocking solution was added to each well. The plate was incubated for 60 minutes at 37° C., and thereafter each well was washed 3 times with 1 mL of distilled water. During that period, 2 tablets of BCIP/NBT were dissolved into distilled water, and the obtained solution was filtered through a filter having a pore size of 0.2 μm to prepare a substrate solution. To each well, 0.5 mL of the prepared BCIP/NBT substrate solution was added, and the plate was incubated at 37° C. until the lumina turned to deep purple (typically for 5-10 minutes). After the completion of the incubation, each well was washed 3 times with 1 mL of distilled water. After washing, the washing solution was removed by aspiration, and the plate was left to stand and dry naturally. After drying, photographs of each well were taken under a microscope.
Each of the obtained images was quantified using an angiogenesis quantification software. Computer analysis was carried out on various parameters.

CC[C@H](C)[C@H](NC(=O)[C@H](CC(C)C)NC(=O)[C@H](CCCCN)NC(=O)[C@H](CC(C)C)NC(=O)[C@@H](N)CCSC)C(=O)N[C@@H](Cc1ccccc1)C(=O)N[C@@H](CC(C)C)C(=O)N[C@@H](Cc1c[nH]cn1)C(=O)N[C@@H](CCCNC(=N)N)C(=O)N[C@@H](CC(C)C)C(=O)N[C@@H](CCCCN)C(=O)N[C@@H](CCCNC(=N)N)C(=O)N[C@@H](CCSC)C(=O)N[C@@H](CCCNC(=N)N)C(=O)N[C@@H](CCCCN)C(=O)N[C@@H](CCCNC(=N)N)C(=O)N[C@@H](CC(C)C)C(=O)N[C@@H](CCCCN)C(=O)N[C@@H](CCCNC(=N)N)C(=O)N[C@@H](CCCCN)C(=O)N[C@@H](CC(C)C)C(=O)N[C@@H](CCCNC(=N)N)C(=O)N[C@@H](Cc1ccccc1)C(=O)N[C@@H](Cc1c[nH]c2ccccc12)C(=O)N[C@@H](Cc1c[nH]cn1)C(=O)N[C@@H](CCCNC(=N)N)C(=O)N[C@@H](CCCCN)C(=O)N[C@@H](CCCNC(=N)N)C(=O)N[C@@H](Cc1ccc(O)cc1)C(=O)N[C@@H](CCCCN)C(=O)O [AG30-5C, reference compound] (H-MLKLIFLHRLKRMRKRLKRKLRFWHRKRYK-OH; N-terminus and C-terminus assumed)
The Length of Lumina (Percentage when taking Control as 100): 119.1%
